Laboratory results published in paper PMC9512014 (Journal of Medicinal Chemistry, 2022).
pIC50: −log10 of the molar value.

Columns and labels:
HDAC9 = HDAC9 (Homo sapiens, UniProt Q9UKV0); assay: Multiplexed selectivity western blot in Jurkat cells, HDAC9; format: cell-based; conditions: Jurkat E6-1, 24 h, concentration response
class I HDAC = conditions: read-out: HDAC cellular IC50 class I; Jurkat E6.1, treated for 24 h; substrate Boc-Lys(Ac)AMC
HDAC7 = target: T1, HDAC7 (Homo sapiens, UniProt Q8WUI4); assay: Multiplexed selectivity western blot in Jurkat cells, HDAC7; format: cell-based; conditions: Jurkat E6-1, 24 h, concentration response
T1 sequence (Q8WUI4 1-952): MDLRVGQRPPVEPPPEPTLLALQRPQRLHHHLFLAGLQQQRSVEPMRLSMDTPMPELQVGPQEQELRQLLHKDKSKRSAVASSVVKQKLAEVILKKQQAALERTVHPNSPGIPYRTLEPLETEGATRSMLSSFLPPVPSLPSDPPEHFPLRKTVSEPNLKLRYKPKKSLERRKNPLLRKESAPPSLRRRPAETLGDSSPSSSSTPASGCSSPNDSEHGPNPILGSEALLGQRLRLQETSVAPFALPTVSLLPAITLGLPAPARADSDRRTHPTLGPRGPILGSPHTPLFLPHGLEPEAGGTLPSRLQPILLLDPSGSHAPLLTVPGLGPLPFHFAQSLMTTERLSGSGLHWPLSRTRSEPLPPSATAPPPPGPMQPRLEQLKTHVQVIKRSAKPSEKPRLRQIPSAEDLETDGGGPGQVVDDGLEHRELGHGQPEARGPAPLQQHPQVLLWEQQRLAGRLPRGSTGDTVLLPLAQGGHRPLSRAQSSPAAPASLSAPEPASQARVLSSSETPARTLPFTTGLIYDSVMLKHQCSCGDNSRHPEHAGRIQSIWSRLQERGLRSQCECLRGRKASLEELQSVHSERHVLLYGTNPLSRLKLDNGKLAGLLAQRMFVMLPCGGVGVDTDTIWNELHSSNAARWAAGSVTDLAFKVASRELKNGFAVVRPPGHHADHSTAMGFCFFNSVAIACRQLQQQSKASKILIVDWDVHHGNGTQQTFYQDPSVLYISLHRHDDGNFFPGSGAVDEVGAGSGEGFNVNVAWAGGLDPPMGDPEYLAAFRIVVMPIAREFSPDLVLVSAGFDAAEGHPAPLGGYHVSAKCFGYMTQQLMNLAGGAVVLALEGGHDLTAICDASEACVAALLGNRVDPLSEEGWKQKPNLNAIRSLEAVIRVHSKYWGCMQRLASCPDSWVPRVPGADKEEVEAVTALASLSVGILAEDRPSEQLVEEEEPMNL

HDAC4 [1] = target: T2, HDAC4 (Homo sapiens, UniProt P56524); assay: HDAC4 degradation by western blot in Jurkat E6-1 cells; format: cell-based; conditions: Jurkat E6-1, 24 h; for hook effect: immunoblot, at 10 μM
Target sequence in this assay (P56524 whole entry): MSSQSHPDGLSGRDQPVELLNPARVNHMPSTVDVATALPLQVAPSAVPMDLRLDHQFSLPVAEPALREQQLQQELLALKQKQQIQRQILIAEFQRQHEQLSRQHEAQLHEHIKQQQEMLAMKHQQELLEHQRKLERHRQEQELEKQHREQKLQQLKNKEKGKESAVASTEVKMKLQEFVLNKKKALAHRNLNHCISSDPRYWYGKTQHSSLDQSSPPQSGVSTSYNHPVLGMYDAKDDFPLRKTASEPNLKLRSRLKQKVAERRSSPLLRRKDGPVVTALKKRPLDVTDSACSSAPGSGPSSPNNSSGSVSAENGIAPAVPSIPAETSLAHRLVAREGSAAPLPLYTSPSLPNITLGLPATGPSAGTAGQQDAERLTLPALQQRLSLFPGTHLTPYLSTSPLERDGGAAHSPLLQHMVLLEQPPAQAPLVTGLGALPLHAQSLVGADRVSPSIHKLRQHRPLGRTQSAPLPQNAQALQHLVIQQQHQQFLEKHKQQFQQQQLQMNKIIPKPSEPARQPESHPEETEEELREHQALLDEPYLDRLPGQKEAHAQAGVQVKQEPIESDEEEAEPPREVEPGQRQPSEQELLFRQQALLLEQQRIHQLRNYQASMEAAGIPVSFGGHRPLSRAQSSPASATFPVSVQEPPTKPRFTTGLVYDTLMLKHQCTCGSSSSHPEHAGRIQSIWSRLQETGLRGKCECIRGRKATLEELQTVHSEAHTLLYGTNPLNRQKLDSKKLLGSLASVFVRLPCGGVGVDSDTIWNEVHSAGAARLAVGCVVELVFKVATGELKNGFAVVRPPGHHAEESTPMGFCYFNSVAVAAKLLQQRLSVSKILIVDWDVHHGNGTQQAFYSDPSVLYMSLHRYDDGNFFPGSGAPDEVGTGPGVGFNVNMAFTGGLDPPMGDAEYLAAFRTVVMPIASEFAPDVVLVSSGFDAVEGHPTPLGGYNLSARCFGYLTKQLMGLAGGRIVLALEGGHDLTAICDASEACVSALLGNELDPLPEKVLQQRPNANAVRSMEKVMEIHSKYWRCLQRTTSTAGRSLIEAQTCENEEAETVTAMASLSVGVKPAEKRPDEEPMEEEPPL

HDAC5 = HDAC5 (Homo sapiens, UniProt Q9UQL6); assay: Multiplexed selectivity western blot in Jurkat cells, HDAC5; format: cell-based; conditions: Jurkat E6-1, 24 h, concentration response
HDAC5, sequence (Q9UQL6 whole entry): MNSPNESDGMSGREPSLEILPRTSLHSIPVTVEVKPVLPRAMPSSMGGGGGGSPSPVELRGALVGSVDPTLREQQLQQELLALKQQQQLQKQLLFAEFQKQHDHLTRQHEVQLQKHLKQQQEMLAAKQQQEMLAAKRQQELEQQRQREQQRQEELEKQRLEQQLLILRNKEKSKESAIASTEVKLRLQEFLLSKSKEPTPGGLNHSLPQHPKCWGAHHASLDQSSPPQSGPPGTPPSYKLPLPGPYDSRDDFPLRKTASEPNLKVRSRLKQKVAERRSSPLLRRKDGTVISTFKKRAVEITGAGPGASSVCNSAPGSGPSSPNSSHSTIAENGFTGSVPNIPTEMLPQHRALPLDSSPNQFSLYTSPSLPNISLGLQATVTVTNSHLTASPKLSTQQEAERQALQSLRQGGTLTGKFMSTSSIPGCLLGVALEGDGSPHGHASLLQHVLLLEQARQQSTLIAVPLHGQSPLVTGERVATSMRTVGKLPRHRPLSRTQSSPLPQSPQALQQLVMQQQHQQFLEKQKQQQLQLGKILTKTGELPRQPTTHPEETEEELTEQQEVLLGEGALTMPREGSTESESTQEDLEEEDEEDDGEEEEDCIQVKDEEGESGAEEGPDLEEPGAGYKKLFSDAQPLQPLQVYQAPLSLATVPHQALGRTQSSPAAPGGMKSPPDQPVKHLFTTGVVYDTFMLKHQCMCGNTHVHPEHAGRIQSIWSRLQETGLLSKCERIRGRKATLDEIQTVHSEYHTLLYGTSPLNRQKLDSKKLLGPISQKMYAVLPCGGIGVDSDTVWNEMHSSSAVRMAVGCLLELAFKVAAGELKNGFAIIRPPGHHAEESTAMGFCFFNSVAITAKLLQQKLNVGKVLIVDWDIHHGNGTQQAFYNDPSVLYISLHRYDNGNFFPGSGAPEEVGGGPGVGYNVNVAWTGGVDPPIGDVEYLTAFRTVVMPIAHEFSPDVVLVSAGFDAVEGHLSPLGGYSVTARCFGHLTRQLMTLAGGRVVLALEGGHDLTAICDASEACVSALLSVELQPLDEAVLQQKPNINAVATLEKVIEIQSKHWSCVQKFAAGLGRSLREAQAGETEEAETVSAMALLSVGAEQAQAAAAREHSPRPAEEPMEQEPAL

HDAC4 [2] = target: T2, HDAC4; assay: Recombinant HDAC4 enzymatic inhibition assay; conditions: HDAC enzymatic activity assays
Target sequence in this assay (P56524 655-1084 limits assumed): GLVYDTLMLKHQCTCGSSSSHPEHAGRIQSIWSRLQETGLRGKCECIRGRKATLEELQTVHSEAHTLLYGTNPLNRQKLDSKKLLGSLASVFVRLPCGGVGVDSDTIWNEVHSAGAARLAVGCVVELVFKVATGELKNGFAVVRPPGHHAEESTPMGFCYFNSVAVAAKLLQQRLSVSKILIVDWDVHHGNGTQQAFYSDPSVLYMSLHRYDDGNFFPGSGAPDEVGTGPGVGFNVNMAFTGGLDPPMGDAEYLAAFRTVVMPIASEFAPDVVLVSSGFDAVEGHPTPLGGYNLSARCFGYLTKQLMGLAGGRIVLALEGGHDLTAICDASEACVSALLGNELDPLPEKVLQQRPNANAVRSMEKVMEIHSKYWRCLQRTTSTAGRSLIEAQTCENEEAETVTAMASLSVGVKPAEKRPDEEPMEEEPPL

HDAC3 = HDAC3 (Homo sapiens, UniProt O15379); assay: Multiplexed selectivity western blot in Jurkat cells, HDAC3; format: cell-based; conditions: Jurkat E6-1, 24 h, concentration response up to 10 μM
HDAC3, sequence (O15379 whole entry): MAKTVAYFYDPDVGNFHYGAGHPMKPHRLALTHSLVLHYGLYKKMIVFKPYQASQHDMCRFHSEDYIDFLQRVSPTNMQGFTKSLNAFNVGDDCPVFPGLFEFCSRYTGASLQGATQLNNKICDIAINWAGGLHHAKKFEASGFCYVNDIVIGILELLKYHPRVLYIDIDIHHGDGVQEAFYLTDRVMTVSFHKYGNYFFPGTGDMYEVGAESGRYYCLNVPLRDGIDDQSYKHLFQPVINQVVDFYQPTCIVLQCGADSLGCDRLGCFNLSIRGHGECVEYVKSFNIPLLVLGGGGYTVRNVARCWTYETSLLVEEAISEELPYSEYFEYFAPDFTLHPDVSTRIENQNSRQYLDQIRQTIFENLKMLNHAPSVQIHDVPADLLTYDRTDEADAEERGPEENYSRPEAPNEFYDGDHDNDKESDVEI

HDAC4 [3] = target: T2, HDAC4; format: cell-based; conditions: Jurkat E6-1, 6 h; compound 7 at 1 μM, compound 11 at 100 nM
Target sequence in this assay (P56524 whole entry): as the sequence (P56524 whole entry) above

HDAC1 = HDAC1 (Homo sapiens, UniProt Q13547); assay: Multiplexed selectivity western blot in Jurkat cells, HDAC1; format: cell-based; conditions: Jurkat E6-1, 24 h, concentration response
HDAC1, sequence (Q13547 whole entry): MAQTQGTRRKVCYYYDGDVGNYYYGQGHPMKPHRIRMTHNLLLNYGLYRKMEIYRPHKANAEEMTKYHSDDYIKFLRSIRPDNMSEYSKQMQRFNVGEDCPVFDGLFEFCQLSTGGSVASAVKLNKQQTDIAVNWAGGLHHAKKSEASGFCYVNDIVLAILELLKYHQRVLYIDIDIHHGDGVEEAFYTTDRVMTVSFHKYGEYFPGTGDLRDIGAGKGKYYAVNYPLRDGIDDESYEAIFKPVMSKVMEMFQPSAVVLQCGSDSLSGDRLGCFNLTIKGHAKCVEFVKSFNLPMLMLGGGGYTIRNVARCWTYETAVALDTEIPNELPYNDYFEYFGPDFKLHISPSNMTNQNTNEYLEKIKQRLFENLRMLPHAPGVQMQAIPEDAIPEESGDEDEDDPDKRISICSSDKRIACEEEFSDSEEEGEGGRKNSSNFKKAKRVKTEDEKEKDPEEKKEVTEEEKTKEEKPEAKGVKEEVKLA

HDAC4 [4] = target: HDAC4 (Mus musculus, UniProt Q6NZM9); conditions: R6/2 mice, chronic administration; cited from earlier work
aggregate load = conditions: R6/2 mice, chronic administration, cortex and brain stem; cited from earlier work

HDAC9, sequence (Q9UKV0 whole entry): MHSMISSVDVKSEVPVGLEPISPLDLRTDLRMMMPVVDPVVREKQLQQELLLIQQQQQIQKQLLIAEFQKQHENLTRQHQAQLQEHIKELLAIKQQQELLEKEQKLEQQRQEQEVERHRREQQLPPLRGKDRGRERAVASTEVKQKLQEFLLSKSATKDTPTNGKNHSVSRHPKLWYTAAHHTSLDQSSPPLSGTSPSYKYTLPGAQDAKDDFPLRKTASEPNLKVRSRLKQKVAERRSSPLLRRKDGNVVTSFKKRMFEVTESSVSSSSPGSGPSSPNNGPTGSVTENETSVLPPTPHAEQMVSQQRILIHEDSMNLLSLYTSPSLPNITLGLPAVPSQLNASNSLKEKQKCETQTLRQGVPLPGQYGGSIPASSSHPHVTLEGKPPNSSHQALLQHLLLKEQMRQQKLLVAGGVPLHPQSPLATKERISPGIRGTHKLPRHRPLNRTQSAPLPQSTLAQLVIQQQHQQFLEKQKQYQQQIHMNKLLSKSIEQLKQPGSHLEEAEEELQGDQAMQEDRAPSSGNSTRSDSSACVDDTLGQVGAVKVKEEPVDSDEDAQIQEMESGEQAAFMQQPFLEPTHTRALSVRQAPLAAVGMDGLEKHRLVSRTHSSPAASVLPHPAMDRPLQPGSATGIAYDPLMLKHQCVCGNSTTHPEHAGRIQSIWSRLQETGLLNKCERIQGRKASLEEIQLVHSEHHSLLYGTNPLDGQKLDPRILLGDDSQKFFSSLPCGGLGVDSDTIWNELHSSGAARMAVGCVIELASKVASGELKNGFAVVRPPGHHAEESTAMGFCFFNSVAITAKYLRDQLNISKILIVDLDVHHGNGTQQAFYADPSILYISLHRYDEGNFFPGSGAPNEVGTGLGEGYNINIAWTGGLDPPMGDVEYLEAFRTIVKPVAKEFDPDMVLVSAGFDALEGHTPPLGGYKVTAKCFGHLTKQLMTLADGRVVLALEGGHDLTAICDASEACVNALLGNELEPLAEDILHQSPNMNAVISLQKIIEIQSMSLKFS

Structure (SMILES)	pIC50 (class I HDAC)	hook effect (HDAC4 [1])	higher inhibition of HDAC5, HDAC7, and HDAC9 compared to HDAC4 (HDAC4 [2])	HDAC4 degradation in the presence of 1 μM proteasome inhibitors MG132 or carfilzomib (HDAC4 [3])	HDAC4 degradation at 10 μM by immunoblot (HDAC4 [1])	degradation of HDAC9 by western blot (HDAC9)	degradation of HDAC7 by western blot (HDAC7)	degradation of HDAC5 by western blot (HDAC5)	degradation of HDAC3 by western blot (HDAC3)	degradation of HDAC1 by western blot (HDAC1)	level of HDAC4 protein in the cortex and brain stem (HDAC4 [4])	aggregate load in the same brain regions (aggregate load)
Cc1ncsc1-c1ccc(CNC(=O)[C@@H]2C[C@@H](O)CN2C(=O)[C@@H](NC(=O)COCCOCCOCCOCCOCC(F)(F)c2cnc(-c3ccc(C(C(=O)NO)c4ccccc4F)cc3)nc2)C(C)(C)C)cc1 (stereo partly drawn) [Compound 7, (2S,4R)-1-((2S)-2-(tert-Butyl)-20,20-difluoro-20-(2-(4-(1-(2-fluorophenyl)-2-(hydroxyamino)-2-oxoethyl)phenyl)pyrimidin-5-yl)-4-oxo-6,9,12,15,18-pentaoxa-3-azaicosan-1-oyl)-4-hydroxy-N-(4-(4-methylthiazol-5-yl)benzyl)pyrrolidine-2-carboxamide]	< 5.30	hook effect was observed	3- to 4 fold	HDAC4 degradation was prevented	–	neither compound demonstrated degradation	neither compound demonstrated degradation	neither compound demonstrated degradation	No concentration-dependent reduction in immunoreactivity	neither compound demonstrated degradation	–	–
O=C(CCCCCCC(=O)Nc1ccccc1)NO [SAHA, suberoylanilide hydroxamic acid]	–	–	–	–	–	–	–	–	–	–	reduction in the level of HDAC4 protein	decrease in aggregate load
Cc1ncsc1-c1ccc(CNC(=O)[C@@H]2C[C@H](O)CN2C(=O)[C@@H](NC(=O)COCCOCCOCCOCCOCC(F)(F)c2cnc(-c3ccc(C(C(=O)NO)c4ccccc4F)cc3)nc2)C(C)(C)C)cc1 (stereo partly drawn) [Compound 8, (2S,4S)-1-((2S)-2-(tert-Butyl)-20,20-difluoro-20-(2-(4-(1-(2-fluorophenyl)-2-(hydroxyamino)-2-oxoethyl)phenyl)pyrimidin-5-yl)-4-oxo-6,9,12,15,18-pentaoxa-3-azaicosanoyl)-4-hydroxy-N-(4-(4-methylthiazol-5-yl)benzyl)pyrrolidine-2-carboxamide]	< 5.30	–	–	–	did not induce HDAC4 degradation	–	–	–	–	–	–	–

Now from value to compound, other results behind:

pIC50 (class I HDAC)	hook effect (HDAC4 [1])	higher inhibition of HDAC5, HDAC7, and HDAC9 compared to HDAC4 (HDAC4 [2])	HDAC4 degradation in the presence of 1 μM proteasome inhibitors MG132 or carfilzomib (HDAC4 [3])	HDAC4 degradation at 10 μM by immunoblot (HDAC4 [1])	Structure (SMILES)	degradation of HDAC9 by western blot (HDAC9)	degradation of HDAC7 by western blot (HDAC7)	degradation of HDAC5 by western blot (HDAC5)	degradation of HDAC3 by western blot (HDAC3)	degradation of HDAC1 by western blot (HDAC1)	level of HDAC4 protein in the cortex and brain stem (HDAC4 [4])	aggregate load in the same brain regions (aggregate load)
< 5.30	–	–	–	did not induce HDAC4 degradation	CCCN(CCCCOCCOCCOCCOCCOCC(=O)N[C@@H](C(=O)N1C[C@@H](O)C[C@@H]1C(=O)NCc1ccc(-c2scnc2C)cc1)C(C)(C)C)C[C@@H](C)NC(=O)c1ccc(-c2noc(C(F)(F)F)n2)cc1 [Compound 12, (2R,4S)-1-((3R,26R)-26-(tert-Butyl)-3-methyl-1,24-dioxo-5-propyl-1-(4-(5-trifluoromethyl-1,2,4-oxadiazol-3-yl)phenyl)-10,13,16,19,22-pentaoxa-2,5,25-triazaheptacosan-27-oyl)-4-hydroxy-N-(4-(4-methylthiazol-5-yl)benzyl)pyrrolidine-2-carboxamide]	–	–	–	–	–	–	–
< 5.30	hook effect was not observed	–	same effect was observed	–	CCCN(CCCCOCCOCCOCCOCCOCC(=O)N[C@H](C(=O)N1C[C@H](O)C[C@H]1C(=O)NCc1ccc(-c2scnc2C)cc1)C(C)(C)C)C[C@@H](C)NC(=O)c1ccc(-c2noc(C(F)(F)F)n2)cc1 [Compound 11, (2S,4R)-1-((3R,26S)-26-(tert-Butyl)-3-methyl-1,24-dioxo-5-propyl-1-(4-(5-trifluoromethyl-1,2,4-oxadiazol-3-yl)phenyl)-10,13,16,19,22-pentaoxa-2,5,25-triazaheptacosan-27-oyl)-4-hydroxy-N-(4-(4-methylthiazol-5-yl)benzyl)pyrrolidine-2-carboxamide]	neither compound demonstrated degradation	neither compound demonstrated degradation	neither compound demonstrated degradation	showed HDAC3 degradation at the highest dose of 10 μM	neither compound demonstrated degradation	–	–
